Experiments:
Assay type in all cases: cell-based
[1] = system: SH-SY5Y cells; assay: Cell survival experiment (MTT), cell death induced by amyloid β protein; details: compound 12.56 μM, 72 h, compared to “Aβ”
Experimental: Each well of a 96-well plate (BD Biocoat) was seeded with SH-SY5Y cells (model of neuronal cells, ATCC) at a concentration of 2×10^5 cells/mL (100 μL/well) and the cells were cultured at 37° C. and 5% CO2 for 24 h. Culture medium used was F12/DMEM (Gibco) supplemented with 1% non-essential amino acids (Gibco), 15% FBS (Bio West), and 1% penicillin/streptomycin (Lonza).
After 24 h, the culture medium was completely removed with an aspirator, 100 μL of culture medium Opti-MEM (Gibco) was added to each well, and the cells were cultured at 37° C. and 5% CO2 for 24 h. […]
Absorbance at 570 nm was measured on a microplate reader (Sumitomo Dainippon Pharma) to measure the MTT formazan production to calculate % relative cell survival (designated as “Control” in FIG. 1).
24 h after seeding a 96-well plate (BD Biocoat) with SH-SY5Y cells, the culture medium was completely removed with an aspirator, amyloid β protein (Beta-Amyloid 1-42, AnaSpec) was mixed with Opti-MEM (Gibco) so that the final concentration was 15 μM, 100 μL of the mixture was added to each well, and the cells were cultured at 37° C. and 5% CO2 for 72 h to induce cell death. Except for performing the procedure described above, the MTT formazan production was measured as described above to calculate % relative cell survival (designated as “Aβ” in FIG. 1). […]

[2] = system: MAP2K4 (mitogen-activated protein kinase 4); assay: Gene expression experiment (real-time PCR) in SH-SY5Y cells: MAP2K4; details: 12.56 μM, amyloid β protein-treated cells, 24 h; compared to “Aβ”
Experimental: (§1) SH-SY5Y cells were seeded in 100 mm-cell dishes (BD Biocoat) at concentrations of 3.7×10^5 cells/mL (10 mL/dish) and cultured for 24 h at 37° C. and 5% CO2. Culture medium used was F12/DMEM (Gibco) supplemented with 1% non-essential amino acids (Gibco), 15% FBS (Bio West), and 1% penicillin/streptomycin (Lonza). After 24 h, the culture medium was completely removed with an aspirator, 10 mL of culture medium Opti-MEM(Gibco) was added to each dish, and the cells were cultured for 24 h at 37° C. and 5% CO2. RNA was extracted from the culture cells and analyzed for the expression of genes described below by real-time PCR (designated as “Control” in FIGS. 2 to 8).
(§2) RNA extraction was performed using ISOGEN Reagent (Nippon Gene Co., Ltd.) in accordance with the protocol recommended by Nippo n Gene Co., Ltd. (see URL: https://www.nippongene.com/siyaku/product/extraction/tds/tds_isogen-rna-dna-protein.pdf). Real-time PCR was performed according to the protocol recommended by Thermo Fisher Scientific using a reagent kit for TaqMan Real-Time PCR (Thermo Fisher Scientific) (see URL: https://assets.thermofisher.com/TFS-Assets/LSG/manuals/4304449_TaqManPCRMM_UG.pdf).
(§3) 24 h after seeding 100 mm-cell dishes (BD Biocoat) with SH-SY5Y cells, the culture medium was completely removed with an aspirator, amyloid β protein (Beta-Amyloid 1-42, AnaSpec) was mixed with Opti-MEM (Gibco) so that the final concentration was 5 μM, 10 mL of the mixture was added to each dish, the cells were cultured for 24 h at 37° C. and 5% CO2, and RNA was extracted. Except for performing the procedure described above, gene expression was analyzed as described above (designated as “Aβ” in FIGS. 2 to 8).
(§4) 24 h after seeding 100 mm-cell dishes (BD Biocoat) with SH-SY5Y cells, the culture medium was completely removed with an aspirator, Sample 1 was mixed with culture medium Opti-MEM(Gibco) so that the final concentration was 12.56 μM, 9,990 μL of the mixture was added to each dish and allowed to stand for 10 min, amyloid β protein (Beta-Amyloid 1-42, AnaSpec) was mixed with Opti-MEM (Gibco) so that the final concentration was […], 10 μL of the mixture was added to each well, the cells were cultured for 24 h at 37° C. and 5% CO2, and RNA was extracted. Except for performing the procedure described above, Gene expression was analyzed as described above (designated as “Aβ+M3,5G” in FIGS. 2 to 8).
(§5) Except that Sample 2 was used instead of Sample 1, gene expression was analyzed as described above (designated as “Aβ+M” in FIGS. 2 to 8).
(§6) Except that Sample 3 was used instead of Sample 1, gene expression was analyzed as described above (designated as “Aβ+M3G” in FIGS. 2 to 8).
(§7) 24 h after seeding 100 mm-cell dishes (BD Biocoat) with SH-SY5Y cells, the culture medium was completely removed with an aspirator, 10 mL of culture medium Opti-MEM(Gibco) mixed with Sample 1 was added to each dish, the cells were cultured for 24 h at 37° C. and 5% CO2, and RNA was extracted. Except for performing the procedure described above, gene expression was analyzed as described above (designated as “M3,5G” in FIGS. 2 to 8).

[3] = system: MAPK14 (mitogen-activated protein kinase 14); assay: Gene expression experiment (real-time PCR) in SH-SY5Y cells: MAPK14; details: 12.56 μM, amyloid β protein-treated cells, 24 h; compared to “Aβ”
Experimental: as §1, §2, §3, §4, §5
(§8) Except that Sample 3 was used instead of Sample 1, gene expression was analyzed as described above (designated as “Aβ+M3G” in FIGS. 2 to 8). […]

[4] = system: MAPK8 (mitogen-activated protein kinase 8); assay: Gene expression experiment (real-time PCR) in SH-SY5Y cells: MAPK8; details: 12.56 μM, amyloid β protein-treated cells, 24 h; compared to “Aβ”
Experimental: as §1, §2, §3, §4, §5, §8

[5] = system: PI3KCA (phosphatidylinositol-4,5-bisphosphate 3-kinase catalyst subunit α); assay: Gene expression experiment (real-time PCR) in SH-SY5Y cells: PI3KCA; details: 12.56 μM, amyloid β protein-treated cells, 24 h; compared to “Aβ”
Experimental: as §1, §2, §3, §4, §5, §6, §7

[6] = system: AKT1 (AKT serine/threonine kinase 1); assay: Gene expression experiment (real-time PCR) in SH-SY5Y cells: AKT1; details: 12.56 μM, amyloid β protein-treated cells, 24 h; compared to “Aβ”
Experimental: as §1, §2, §3, §4, §5, §6, §7

[7] = system: PARP1 (poly(ADP-ribose) polymerase 1); assay: Gene expression experiment (real-time PCR) in SH-SY5Y cells: PARP1; details: 12.56 μM, amyloid β protein-treated cells, 24 h; compared to “Aβ”
Experimental: as §1, §2, §3, §4, §5, §8

[8] = system: CASP3 (caspase-3); assay: Gene expression experiment (real-time PCR) in SH-SY5Y cells: CASP3; details: 12.56 μM, amyloid β protein-treated cells, 24 h; compared to “Aβ”
Experimental: as §1, §2, §3, §4, §5, §6, §7

| Structure (SMILES) | % relative cell survival [1] | expression of MAP2K4 [2] | expression of MAPK14 [3] | expression of MAPK8 [4] | expression of PI3KCA [5] | expression of AKT1 [6] | expression of PARP1 [7] | expression of CASP3 [8] |
| --- | --- | --- | --- | --- | --- | --- | --- | --- |
| COc1cc(-c2[o+]c3cc(O)cc(O)c3cc2O)cc(OC)c1O [malvidin, Malvidin chloride, reference compound] | Inhibition of cell death was also confirmed | increase | increase | increase | increase | increase | increase | decrease |
| COc1cc(-c2[o+]c3cc(O)cc(O)c3cc2O[C@@H]2O[C@H](CO)[C@@H](O)[C@H](O)[C@H]2O)cc(OC)c1O.[Cl-] [malvidin-3-glucoside, Malvidin-3-glucoside chloride, reference compound] |  | increase | increase |  | increase | increase | increase |  |
